Data from patent US12281084B2, “Acetyl-CoA synthetase 2 (ACSS2) inhibitors and methods using same” (The Wistar Institute, priority 2019, dated 2025).
Entries after “also recorded” stand apart in the source; their conditions may differ.

How the values were obtained:
recombinant human ACSS2 = biological target: T1, recombinant human ACSS2 (Homo sapiens, UniProt Q9NR19); experiment: ACSS2 biochemical assay (Transcreener AMP assay); details: in vitro biochemical TranScreener assay; mean±S.D., n≥3 (FIG. 1C)
T1 construct: purchased Origene TP304260
T1 sequence (Q9NR19 whole entry): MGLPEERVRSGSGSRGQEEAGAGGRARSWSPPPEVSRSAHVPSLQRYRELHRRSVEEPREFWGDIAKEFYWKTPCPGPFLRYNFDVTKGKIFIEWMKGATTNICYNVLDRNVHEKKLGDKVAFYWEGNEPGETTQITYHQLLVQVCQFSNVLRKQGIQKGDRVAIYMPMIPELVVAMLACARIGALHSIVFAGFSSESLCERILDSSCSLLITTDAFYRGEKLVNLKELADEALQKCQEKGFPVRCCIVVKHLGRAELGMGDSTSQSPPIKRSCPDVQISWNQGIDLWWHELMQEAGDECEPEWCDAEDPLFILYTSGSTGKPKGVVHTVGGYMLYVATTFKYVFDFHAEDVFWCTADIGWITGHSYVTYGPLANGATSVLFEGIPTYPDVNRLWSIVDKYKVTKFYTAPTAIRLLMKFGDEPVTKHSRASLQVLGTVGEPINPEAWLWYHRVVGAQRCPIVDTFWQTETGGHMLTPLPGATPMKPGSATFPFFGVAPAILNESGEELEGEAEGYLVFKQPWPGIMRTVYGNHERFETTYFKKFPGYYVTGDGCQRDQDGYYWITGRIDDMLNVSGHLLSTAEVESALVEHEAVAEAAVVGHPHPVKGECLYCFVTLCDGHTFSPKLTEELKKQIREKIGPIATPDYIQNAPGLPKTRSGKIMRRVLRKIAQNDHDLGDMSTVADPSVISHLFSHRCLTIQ
Experimental: ACSS2 enzyme activity was measured using the TRANSCREENER® TRF AMP/GMP assay (Bellbrook Labs). Recombinant ACSS2 was purchased from Origene. The assay was performed in white, opaque, low volume 384 well plates. Test compounds were diluted in 100% DMSO and then 100 nL of each dilution was transferred using the Janus MDT Nanohead to assay plates containing 3 μL ACSS2 (2.5 nM) in assay buffer (30 mM HEPES, pH 7.4, 140 mM NaCl, 2 mM MgCl2, 5 mM sodium acetate, 2 mM DTT, 0.005% Brij35). Three microliters of substrate mix containing 100 μM ATP and 10 μM coenzyme A was added to the plates followed by a 120 min incubation. The final concentrations of enzyme and substrates in the reaction mix was 1.25 nM ACSS2, 50 μM ATP, and 5 μM coenzyme A. After incubation, 3 μL of terbium conjugated AMP antibody and AMP tracer was added to the plates according to the methods described by BellBrook Labs. After an additional 30 min, the HTRF signal was measured using an Envision Plate reader. Data were normalized to % inhibition, where 100% inhibition is equal to the counts obtained in the absence of ACSS2, and 0% inhibition is equal to the counts obtained in the complete reaction including a DMSO control.
A robust biochemical screening assay was set up for testing compounds as potential ACSS2 inhibitors. […]

BT474 tumors = experiment: BT474 tumor xenograft growth in NSG mice; assay type: in vivo, mouse
Experimental: For BT474 mouse xenograft studies 5-6 week old female NSG […] were anesthetized and one 17β-estradiol 60 day release pellet (Innovative Research of America Cat. No. SE-121) was injected subcutaneously via 10 gauge precision trochar into the lateral side of the neck between the ear and shoulder. 24 hours later 10^5 BT474 luciferase positive cells in 100 μl PBS:matrigel (growth factor reduced) were injected subcutaneously into the hind limb. For A7C11 and Brpkp110 xenografts, 5×10^5 cells in 100 μl PBS:Matrigel (growth factor reduced Corning Cat. No. 356231) were subcutaneously injected into the hindlimb of 5-6 week old female NSG mice […]. Following tumor establishment in all groups, mice were randomized and treated intraperitoneally (IP) daily with vehicle (10% DMSO, 10% absolute ethanol, 20% solutol, 60% water containing 0.5% Tween20) or 100 mg/kg VY-3-135 as indicated in the figure legend. Tumors were measured thrice weekly via caliper measurement and tumor volume calculated as (L×W^2)/2 (where L is the longer of the 2 measurements). […]
Mice bearing luciferase positive tumors were injected IP with 150 mg/kg sterile filtered D-luciferin potassium salt (Gold Bio Cat. No. LUCK-1G). […] Images were analyzed using Living Image Software (Perkin Elmer). […]

CCn1c(C(O)(c2ccccc2)c2ccccc2)nc2ccc(C(=O)NC[C@@H](C)O)cc21 [VY-3-135, (R)-1-ethyl-2-(hydroxydiphenylmethyl)-N-(2-hydroxypropyl)-1H-benzo[d]imidazole-6-carboxamide]
IC50 (recombinant human ACSS2): 44 ± 3.85 nM
tumor palpability / regression at end of regimen (BT474 tumors; BT474 luciferase tumors, VY-3-135 treated group): two of the tumors in VY-3-135 treated group were not palpable by the end of the regimen, with one tumor fully regressing
BT474 tumor growth (BT474 tumors; VY-3-135 100 mg/kg IP daily, two weeks of treatment (FIG. 6A), 100 mg/kg): causes a significant decrease in BT474+luciferase tumor growth; also recorded: completely abrogated tumor growth
